Test results as given in patent US9365522B2, “Pyrazole amide derivative” (AMGEN INC., priority 2015, dated 2016).

Target: T1, ligand binding domain of human ROR gamma (Homo sapiens, UniProt P51449)
T1 construct: NM_001001523; expressed in transfected cells; host or cells: HEK293T
T1 sequence (P51449 247-497 isoform P51449-2): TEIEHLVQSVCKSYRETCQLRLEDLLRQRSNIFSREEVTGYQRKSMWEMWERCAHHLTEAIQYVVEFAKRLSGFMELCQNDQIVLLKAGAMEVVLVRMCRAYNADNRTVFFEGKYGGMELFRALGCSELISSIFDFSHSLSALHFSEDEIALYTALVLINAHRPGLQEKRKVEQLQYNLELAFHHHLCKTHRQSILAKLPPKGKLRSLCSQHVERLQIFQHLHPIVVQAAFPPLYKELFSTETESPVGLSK
Assay: ROR gamma reporter gene assay (GAL4-RORγ LBD luciferase, Dual-Glo)
Format: cell-based
Conditions: HEK293T cells transfected with pM-ROR gamma, 8 concentrations 3.5 nM to 10.5 μM, 24 h incubation; read-out: result (pIC50, inhibition of RORγ transcriptional activity) (converted)
Method in brief: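 First, HEK293T cells are transfected with the GAL4–RORγ LBD construct, a 5×UAS luciferase reporter and a constitutive renilla control. Next, test compounds are added over eight concentrations (3.5 nM to 10.5 μM). After 24 h at 37 °C, Dual-Glo luminescence is measured and pIC50 fitted.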

| Compound | IC50 [pM] |
| --- | --- |
| CC1(C)[C@@H]2C[C@H](N(C[C@H](O)c3c(F)cccc3Cl)C(=O)c3cnn([C@H]4CC[C@](C)(C(=O)O)CC4)c3C(F)(F)F)C[C@@H]21 [Example 354, trans-4-(4-((2-(2-chloro-6-fluorophenyl)-2-hydroxyethyl)((1R,3r,5S)-6,6-dimethylbicyclo[3.1.0]hexan-3-yl)carbamoyl)-5-(trifluoromethyl)-1H-pyrazol-1-yl)-1-methylcyclohexanecarboxylic acid] | 513000 |
| CC1(C)[C@@H]2C[C@H](N(C[C@@H](O)c3c(F)cccc3Cl)C(=O)c3cnn([C@H]4CC[C@](C)(C(=O)O)CC4)c3C(F)(F)F)C[C@@H]21 [Example 355, trans-4-(4-((2-(2-chloro-6-fluorophenyl)-2-hydroxyethyl)((1R,3r,5S)-6,6-dimethylbicyclo[3.1.0]hexan-3-yl)carbamoyl)-5-(trifluoromethyl)-1H-pyrazol-1-yl)-1-methylcyclohexanecarboxylic acid] | 21900 |
| COc1cccc(Cl)c1[C@@H](O)CN(CC(C)(C)C)C(=O)c1cnn([C@H]2CC[C@](C)(C(=O)O)CC2)c1C(F)(F)F [Example 356, trans-4-(4-(((2R)-2-(2-chloro-6-methoxyphenyl)-2-hydroxyethyl)-(2,2-dimethylpropyl)carbamoyl)-5-(trifluoromethyl)pyrazol-1-yl)-1-methylcyclohexane-1-carboxylic acid] | 102000 |
| COc1cccc(Cl)c1[C@H](O)CN(CC(C)(C)C)C(=O)c1cnn([C@H]2CC[C@](C)(C(=O)O)CC2)c1C(F)(F)F [Example 357, trans-4-(4-(((2S)-2-(2-chloro-6-methoxyphenyl)-2-hydroxyethyl)-(2,2-dimethylpropyl)carbamoyl)-5-(trifluoromethyl)pyrazol-1-yl)-1-methylcyclohexane-1-carboxylic acid] | ≥ 1e+07 |
| CC(C)(C)CN(CC(=O)c1c(Cl)cccc1Cl)C(=O)c1cnn([C@H]2CC[C@](C)(C(=O)O)CC2)c1Cl [Example 358, trans-4-(5-chloro-4-((2-(2,6-dichlorophenyl)-2-oxoethyl)-(2,2-dimethylpropyl)carbamoyl)pyrazol-1-yl)-1-methylcyclohexane-1-carboxylic acid] | 61700 |
| Cc1cc(Cl)c(C(=O)CN(CC(C)(C)C)C(=O)c2cnn([C@H]3CC[C@](C)(C(=O)O)CC3)c2Cl)c(Cl)c1 [Example 359, trans-4-(5-chloro-4-((2-(2,6-dichloro-4-methylphenyl)-2-oxoethyl)-(2,2-dimethylpropyl)carbarnoyl)pyrazol-1-yl)-1-methylcyclohexane-1-carboxylic acid] | 26300 |
| Cc1[nH]c2cccc(Cl)c2c1CCN(CC(C)(C)C)C(=O)c1cnn([C@H]2CC[C@](C)(C(=O)O)CC2)c1C(F)(F)F [Example 360, trans-4-(4-(2-(4-chloro-2-methyl-1H-indol-3-yl)ethyl-(2,2-dimethylpropyl)carbamoyl)-5-(trifluoromethyl)pyrazol-1-yl)-1-methylcyclohexane-1-carboxylic acid] | 178000 |
| CC1(C)[C@@H]2C[C@H](N(CC(=O)c3c(Cl)cccc3Cl)C(=O)c3cnn([C@H]4CC[C@](C)(C(=O)O)CC4)c3Cl)C[C@@H]21 [Example 363, trans-4-(5-chloro-4-((2-(2,6-dichlorophenyl)-2-oxoethyl)((1R,3r,5S)-6,6-dimethylbicyclo[3.1.0]hexan-3-yl)carbamoyl)-1H-pyrazol-yl)-1-methylcyclohexanecarboxylic acid] | 13200 |
| Cc1c(C(=O)N(CC(=O)c2c(Cl)cccc2Cl)[C@H]2C[C@@H]3[C@H](C2)C3(C)C)cnn1[C@H]1CC[C@](C)(C(=O)O)CC1 [Example 364, trans-4-(4-((2-(2,6-dichlorophenyl)-2-oxoethyl)((1R,3r,5S)-6,6-dimethylbicyclo[3.1.0]hexan-3-yl)carbamoyl)-5-methyl-1H-pyrazol-1-yl)-1-methylcyclohexanecarboxylic acid] | 45700 |
| Cc1cc(Cl)c(C(=O)CN(C(=O)c2cnn([C@H]3CC[C@](C)(C(=O)O)CC3)c2C)[C@H]2C[C@@H]3[C@H](C2)C3(C)C)c(Cl)c1 [Example 365, trans-4-(4-((2-(2,6-dichloro-4-methylphenyl)-2-oxoethyl)((1R,3r,5S)-6,6-dimethylbicyclo[3.1.0]hexan-3-yl)carbamoyl)-5-methyl-1H-pyrazol-1-yl)-1-methylcyclohexanecarboxylic acid] | 30900 |
| Cc1cc(Cl)c(C(=O)CN(C(=O)c2cnn([C@H]3CC[C@](C)(C(=O)O)CC3)c2Cl)[C@H]2C[C@@H]3[C@H](C2)C3(C)C)c(Cl)c1 [Example 366, trans-4-(5-chloro-4-((2-(2,6-dichloro-4-methylphenyl)-2-oxoethyl)((1R,3r,5S)-6,6-dimethylbicyclo[3.1.0]hexan-3-yl)carbamoyl)-1H-pyrazol-1-yl)-1-methylcyclohexanecarboxylic acid] | 15100 |
| CC1(C)[C@@H]2C[C@H](N(CC(=O)c3c(Cl)cncc3Cl)C(=O)c3cnn([C@H]4CC[C@](C)(C(=O)O)CC4)c3Cl)C[C@@H]21 [Example 367, trans-4-(5-chloro-4-((2-(3,5-dichloropyridin-4-yl)-2-oxoethyl)((1R,3r,5S)-6,6-dimethylbicyclo[3.1.0]hexan-3-yl)carbamoyl)-1H-pyrazol-1-yl)-1-methylcyclohexanecarboxylic acid] | 30200 |
| CC1(C)[C@@H]2C[C@H](N(C[C@H](O)c3ccccc3Cl)C(=O)c3cnn([C@H]4CC[C@](C)(C(=O)O)CC4)c3C(F)(F)F)C[C@@H]21 [Example 368, trans-4-(4-((2-(2-chlorophenyl)-2-hydroxyethyl)((1R,3r,5S)-6,6-dimethylbicyclo[3.1.0]hexan-3-yl)carbamoyl)-5-(trifluoromethyl)-1H-pyrazol-1-yl)-1-methylcyclohexanecarboxylic acid] | 191000 |

Second part, the compound after the results:

| IC50 [pM] | Compound |
| --- | --- |
| 1.23e+06 | CC1(C)[C@@H]2C[C@H](N(C[C@@H](O)c3ccccc3Cl)C(=O)c3cnn([C@H]4CC[C@](C)(C(=O)O)CC4)c3C(F)(F)F)C[C@@H]21 [Example 369, trans-4-(4-((2-(2-chlorophenyl)-2-hydroxyethyl)((1R,3r,5S)-6,6-dimethylbicyclo[3.1.0]hexan-3-yl)carbamoyl)-5-(trifluoromethyl)-1H-pyrazol-yl)-1-methylcyclohexanecarboxylic acid] |
| 537000 | COc1ccccc1[C@@H](O)CN(C(=O)c1cnn([C@H]2CC[C@](C)(C(=O)O)CC2)c1C(F)(F)F)[C@H]1C[C@@H]2[C@H](C1)C2(C)C [Example 370, trans-4-(4-(((1R,3r,5S)-6,6-dimethylbicyclo[3.1.0]hexan-3-yl)(2-hydroxy-2-(2-methoxyphenyl)ethyl)carbamoyl)-5-(trifluoromethyl)-1H-pyrazoH-yl)-1-methylcyclohexanecarboxylic acid] |
| 5.37e+06 | COc1ccccc1[C@H](O)CN(C(=O)c1cnn([C@H]2CC[C@](C)(C(=O)O)CC2)c1C(F)(F)F)[C@H]1C[C@@H]2[C@H](C1)C2(C)C [Example 371, trans-4-(4-(((1R,3r,5S)-6,6-dimethylbicyclo[3.1.0]hexan-3-yl)(2-hydroxy-2-(2-methoxyphenyl)ethyl)carbamoyl)-5-(trifluoromethyl)-1H-pyrazol-1-yl)-1-methylcyclohexanecarboxylic acid] |
| 331000 | CC1(C)[C@@H]2C[C@H](N(C[C@H](O)c3ccccc3C(F)(F)F)C(=O)c3cnn([C@H]4CC[C@](C)(C(=O)O)CC4)c3C(F)(F)F)C[C@@H]21 [Example 372, trans-4-(4-(((1R,3r,5S)-6,6-dimethylbicyclo[3.1.0]hexan-3-yl)(2-hydroxy-2-(2-(trifluoromethyl)phenyl)ethyl)carbamoyl)-5-(trifluoromethyl)-1H-pyrazol-1-yl)-1-methylcyclohexanecarboxylic acid] |
| 3.39e+06 | CC1(C)[C@@H]2C[C@H](N(C[C@@H](O)c3ccccc3C(F)(F)F)C(=O)c3cnn([C@H]4CC[C@](C)(C(=O)O)CC4)c3C(F)(F)F)C[C@@H]21 [Example 373, trans-4-(4-(((1R,3r,5S)-6,6-dimethylbicyclo[3.1.0]hexan-3-yl)(2-hydroxy-2-(2-(trifluoromethyl)phenyl)ethyl)carbamoyl)-5-(trifluoromethyl)-1H-pyrazol-1-yl)-1-methylcyclohexanecarboxylic acid] |
| 661000 | COc1cccc(Cl)c1[C@@H](O)CN(C(=O)c1cnn([C@H]2CC[C@](C)(C(=O)O)CC2)c1Cl)[C@H]1C[C@@H]2[C@H](C1)C2(C)C [Example 374, trans-4-(5-chloro-4-((2-(2-chloro-6-methoxyphenyl)-2-hydroxyethyl)((1R,3r,5S)-6,6-dimethylbicydo[3.1.0]hexan-3-yl)carbamoyl)-1H-pyrazol-1-yl)-1-methylcyclohexanecarboxylic acid] |
| 107000 | COc1cccc(Cl)c1[C@H](O)CN(C(=O)c1cnn([C@H]2CC[C@](C)(C(=O)O)CC2)c1Cl)[C@H]1C[C@@H]2[C@H](C1)C2(C)C [Example 375, trans-4-(5-chloro-4-((2-(2-chloro-6-methoxyphenyl)-2-hydroxyethyl)((1R,3r,5S)-6,6-dimethylbicydo[3.1.0]hexan-3-yl)carbamoyl)-1H-pyrazol-1-yl)-1-methylcyclohexanecarboxylic acid] |
